Test results: patent US20070232492A1, “Herbicidal Composition” (Ishihara Sangyo Kaisha, LTD., priority 2004, published 2007)
Read-outs that look alike come from different tables or passages of the source.

Test system: barnyardgrass (Echinochloa oryzicola vasing)
Experiment: Growth inhibition of barnyardgrass in paddy soil pots, application under submerged condition, visual rating (observed value) and Colby expected value
Format: in vivo
Conditions: for inhibition at 50 g/ha: 0.5 g/a; for inhibition at 7.9 g/ha: 0.079 g/a; for inhibition at 15.8 g/ha: 0.158 g/a; for inhibition at 51 g/ha: 0.51 g/a; for inhibition at 112.5 g/ha: 1.125 g/a; for inhibition at 225 g/ha: 2.25 g/a
Text: When the herbicidal activity in a case where two active ingredients are combined, is larger than the simple sum of the respective herbicidal activities of the two active ingredients (the expected activity), it is called a synergistic effect. The activity expected by the combination of two active ingredients can be calculated as follows (Colby S. R., “Weed”, vol. 15, p. 20-22, 1967). E=p+q−(p×q÷100) where p: growth inhibition rate when treated with x (g/a) of herbicide X,
q: growth inhibition rate when treated with y (g/a) of herbicide Y,
E: growth inhibition rate expected when treated with x (g/a) of herbicide X and y (g/a) of herbicide Y.
Namely, when the actual growth inhibition rate (observed value) is larger than the growth inhibition rate by the above calculation (expected value), the activity by the combination can be regarded as showing a synergistic effect.
Paddy field soil was put into a 1/10,000 are pot, and seeds of barnyardgrass (Echinochloa oryzicola vasing) were sown and left to stand under an irrigated condition with a water depth of 3.5 cm. When barnyardgrass reached 2.0 to 2.5 leaf stage, wettable powders of compound A2 and compound (B1.1) were, respectively, diluted with water and applied under submerged condition so that the active ingredients became the prescribed amounts, respectively. The state of growth was visually observed 21 days after application, and the growth inhibition rate (%) evaluated in accordance with the following evaluation standard (observed value) and the growth inhibition rate (%) calculated by the above-mentioned Colby method (expected value) are shown in Table 1.
Growth inhibition rate (%)=0% (equivalent to the non-treated area) to 100% (complete kill)
(§1) Paddy field soil was put into a 1/10,000 are pot, and seeds of barnyardgrass (Echinochloa oryzicola vasing) were sown and left to stand under an irrigated condition with a water depth of 3.5 cm. When barnyardgrass reached 2.0 to 2.5 leaf stage, wettable powders of compound A2 and compound (B2.1) were, respectively, diluted with water and applied under submerged condition so that the active ingredients became the prescribed amounts, respectively. The state of growth was visually observed 21 days after application, and evaluation and calculation were carried out in the same manner as in the above Test Example 1.
as §1, with “leaf stage, a wettable powder” for “leaf stage, wettable powders”, “a wettable powder of compound” for “stage, wettable powders of compound”, “A2 and an emulsifiable concentrate of compound (B3.1)” for “A2 and compound (B2.1)”, “of compound (B3.1) were, respectively,” for “and compound (B2.1) were, respectively,”
as §1, with “(B4.1)” for “(B2.1)”
Paddy field soil was put into a 1/10,000 are pot, and seeds of barnyardgrass (Echinochloa oryzicola vasing) were sown and left to stand under an irrigated condition with a water depth of 3.5 cm. […]

[1] = Echinochloa oryzicola, soil, 336 h, 2.8 to 3.4 leaf stage, 14 days after application, Test Examples 66-72, read-out: Growth inhibition rate (%) Observed
[2] = Echinochloa oryzicola, soil, 504 h, 2.0 to 2.5 leaf stage, 21 days after application, read-out: Growth inhibition rate (%) Observed
[3] = Echinochloa oryzicola, soil, 528 h, 2.5 to 3.0 leaf stage, 22 days after application, read-out: Growth inhibition rate (%) Observed
[4] = Echinochloa oryzicola, soil, 504 h, 3.0 to 3.3 leaf stage, 21 days after application, read-out: Growth inhibition rate (%) Observed
[5] = Echinochloa oryzicola, soil, 528 h, 2.1 to 3.2 leaf stage, 22 days after application, read-out: Growth inhibition rate (%) Observed

With `CS(=O)(=O)c1ccc(C(=O)C2C(=O)CCCC2=O)c([N+](=O)[O-])c1` [Compound (B4.2), mesotrione] the inhibition at 25 g/ha (Echinochloa oryzicola, soil, 336 h, 0.25 g/a, 2.8 to 3.4 leaf stage, 14 days after application, Test Examples 66-72, read-out: Growth inhibition rate (%) Observed) was 0%, the inhibition at 50 g/ha [1] was 0% and the inhibition at 25 g/ha (Echinochloa oryzicola, soil, 504 h, 0.25 g/a, 2.0 to 2.5 leaf stage, 21 days after application, read-out: Growth inhibition rate (%) Observed) was 0%. The inhibition at 50 g/ha [2] was 0%.

`COC(=O)c1c(Cl)nn(C)c1S(=O)(=O)NC(=O)Nc1nc(OC)cc(OC)n1` [Compound (B1.6), halosulfuron-methyl] showed an inhibition at 30 g/ha (Echinochloa oryzicola, soil, 456 h, read-out: Growth inhibition rate (%) Observed, 0.3 g/a, 2.8 to 3.2 leaf stage, 19 days after application, Test Examples 62-65) of 25% and an inhibition at 60 g/ha (Echinochloa oryzicola, soil, 456 h, read-out: Growth inhibition rate (%) Observed, 0.6 g/a, 2.8 to 3.2 leaf stage, 19 days after application, Test Examples 62-65) of 40%.

Work on `CCOc1ccccc1OS(=O)(=O)NC(=O)Nc1nc(OC)cc(OC)n1` [Compound (B1.5), ethoxysulfuron] yielded an inhibition at 10.5 g/ha (Echinochloa oryzicola, soil, 336 h, 0.105 g/a, 2.8 to 3.4 leaf stage, 14 days after application, Test Examples 66-72, read-out: Growth inhibition rate (%) Observed) of 10%, an inhibition at 21 g/ha (Echinochloa oryzicola, soil, 336 h, 0.21 g/a, 2.8 to 3.4 leaf stage, 14 days after application, Test Examples 66-72, read-out: Growth inhibition rate (%) Observed) of 20% and an inhibition at 7.9 g/ha [3] of 0%. For the same compound, the inhibition at 15.8 g/ha [3] was 3%.

`CCOC(=O)c1cnn(C)c1S(=O)(=O)NC(=O)Nc1nc(OC)cc(OC)n1` [Compound (B1.3), pyrazosulfuron-ethyl] showed an inhibition at 7.9 g/ha [4] of 20%, an inhibition at 15.8 g/ha [4] of 37% and an inhibition at 7.9 g/ha [3] of 50%. The inhibition at 15.8 g/ha [3] was 70%.

For `Cc1ccc(C(=O)COc2c(C(=O)c3ccc(Cl)c(C)c3Cl)c(C)nn2C)cc1` [Compound (B4.6), benzofenap], the “Growth inhibition rate (%) Observed” value (5 g/a, 2.8 to 3.2 leaf stage, 19 days after application, Test Examples 62-65) was 0% and the “Growth inhibition rate (%) Observed” value (10 g/a, 2.8 to 3.2 leaf stage, 19 days after application, Test Examples 62-65) was 0%.

In the case of `Cc1ccc(S(=O)(=O)Oc2c(C(=O)c3ccc(Cl)cc3Cl)c(C)nn2C)cc1` [Compound (B4.5), pyrazolynate], the inhibition at 500 g/ha (Echinochloa oryzicola, soil, 456 h, 5 g/a, 2.8 to 3.2 leaf stage, 19 days after application, Test Examples 62-65, read-out: Growth inhibition rate (%) Observed) is reported as 0% and the inhibition at 1000 g/ha (Echinochloa oryzicola, soil, 456 h, 10 g/a, 2.8 to 3.2 leaf stage, 19 days after application, Test Examples 62-65, read-out: Growth inhibition rate (%) Observed) is reported as 0%.

`COc1cc(OC)nc(NC(=O)NS(=O)(=O)c2c(Cl)nc3ccccn23)n1` [Compound (B1.4), imazosulfuron] gave an inhibition at 45 g/ha (Echinochloa oryzicola, soil, 336 h, 0.45 g/a, 2.8 to 3.4 leaf stage, 14 days after application, Test Examples 66-72, read-out: Growth inhibition rate (%) Observed) of 25%, an inhibition at 90 g/ha (Echinochloa oryzicola, soil, 336 h, 0.9 g/a, 2.8 to 3.4 leaf stage, 14 days after application, Test Examples 66-72, read-out: Growth inhibition rate (%) Observed) of 40% and an inhibition at 33.8 g/ha (Echinochloa oryzicola, soil, 528 h, 0.338 g/a, 2.5 to 3.0 leaf stage, 22 days after application, read-out: Growth inhibition rate (%) Observed) of 53%. It also gave an inhibition at 67.5 g/ha (Echinochloa oryzicola, soil, 528 h, 0.675 g/a, 2.5 to 3.0 leaf stage, 22 days after application, read-out: Growth inhibition rate (%) Observed) of 57%.

In the case of `Cc1nn(C)c(OCC(=O)c2ccccc2)c1C(=O)c1ccc(Cl)cc1Cl` [Compound (B4.3), pyrazoxyfen], the “Growth inhibition rate (%) Observed” value (5.63 g/a, 2.5 to 3.0 leaf stage, 22 days after application) is reported as 0% and the “Growth inhibition rate (%) Observed” value (11.25 g/a, 2.5 to 3.0 leaf stage, 22 days after application) is reported as 10%.

`COC(=O)c1ccccc1CS(=O)(=O)NC(=O)Nc1nc(OC)cc(OC)n1` [Compound (B1.1), bensulfuron-methyl] was tested, and the inhibition at 25.5 g/ha (Echinochloa oryzicola, soil, 336 h, 0.255 g/a, 2.8 to 3.4 leaf stage, 14 days after application, Test Examples 66-72, read-out: Growth inhibition rate (%) Observed) was 30%, the inhibition at 51 g/ha [1] was 45% and the inhibition at 26 g/ha (Echinochloa oryzicola, soil, 504 h, 0.26 g/a, 2.0 to 2.5 leaf stage, 21 days after application, read-out: Growth inhibition rate (%) Observed) was 47%. It also gave an inhibition at 51 g/ha [2] of 57%.

With `CO/N=C(\C)c1cccc(Oc2nc(OC)cc(OC)n2)c1C(=O)OC` [Compound (B2.1), pyriminobac-methyl] the inhibition at 90 g/ha (Echinochloa oryzicola, soil, 336 h, read-out: Growth inhibition rate (%) Observed, 0.9 g/a, 2.8 to 3.4 leaf stage, 14 days after application, Test Examples 66-72) was 60%, the inhibition at 22.5 g/ha (Echinochloa oryzicola, soil, 504 h, read-out: Growth inhibition rate (%) Observed, 0.225 g/a, 2.0 to 2.5 leaf stage, 21 days after application) was 60% and the inhibition at 45 g/ha (Echinochloa oryzicola, soil, 504 h, read-out: Growth inhibition rate (%) Observed, 0.45 g/a, 2.0 to 2.5 leaf stage, 21 days after application) was 80%.

`CS(=O)(=O)c1ccc(C(=O)C2C(=O)CCCC2=O)c(Cl)c1COCC1CCCO1` (stereo not drawn) [Compound (B4.4), AVH-301] gave an inhibition at 112.5 g/ha [1] of 0%, an inhibition at 225 g/ha [1] of 0% and an inhibition at 112.5 g/ha [5] of 13%. It also gave an inhibition at 225 g/ha [5] of 13%.

In the case of `COCc1cccc(C(O)c2nc(OC)cc(OC)n2)c1NS(=O)(=O)C(F)F` (stereo not drawn) [Compound (B2.2), KUH-021], the “Growth inhibition rate (%) Observed” value (0.25 g/a, 2.8 to 3.2 leaf stage, 21 days after application, Test Examples 39-43) is reported as 60% and the “Growth inhibition rate (%) Observed” value (0.335 g/a, 2.8 to 3.2 leaf stage, 21 days after application, Test Examples 39-43) is reported as 68%.

Compound `CC(C)(NC(=O)NCc1ccccc1Cl)c1ccccc1` [Compound (B6.2), cumyluron] has an inhibition at 750 g/ha (Echinochloa oryzicola, soil, 504 h, 7.5 g/a, 2.0 to 2.5 leaf stage, 21 days after application, read-out: Growth inhibition rate (%) Observed) of 3% and an inhibition at 1500 g/ha (Echinochloa oryzicola, soil, 504 h, 15 g/a, 2.0 to 2.5 leaf stage, 21 days after application, read-out: Growth inhibition rate (%) Observed) of 3%.
